Experimental data as given in BigSolDB 2.1.

Cc1ncc(COP(=O)(O)O)c(C=O)c1O.O
solubility (mole fraction)
Settings	278.15 K	283.15 K	288.15 K	293.15 K	298.15 K	303.15 K	308.15 K	313.15 K	318.15 K
in acetone	4.8e-07	6.8e-07	8.7e-07	1.26e-06	1.74e-06	2.42e-06	3.19e-06	4.06e-06	5.02e-06
in ethanol	2.81e-06	3.12e-06	3.5e-06	3.95e-06	4.18e-06	4.86e-06	6e-06	7.22e-06	8.59e-06
in isopropanol	2.35e-06	2.45e-06	2.77e-06	3.2e-06	3.73e-06	4.59e-06	5.66e-06	7.04e-06	9.17e-06
in methanol	4.5e-06	5.92e-06	8.99e-06	1.33e-05	1.83e-05	2.39e-05	3.18e-05	4.17e-05	5.38e-05
in water	0.000216	0.000247	0.000284	0.000333	0.000388	0.000465	0.000558	0.00066	0.000803
